{"source": "patent US20170368049A1", "about": "(HANMI PHARM. CO., LTD., priority 2015, published 2017)", "assay": "Photoreaction test with cholecalciferol (photostability chamber)", "assay_type": "physicochemical", "conditions": "photostability chamber, 1,200,000 LUX, 18.44 hours", "description": "Cholecalciferol (vitamin D3) also has poor physiochemical stability and may not ensure stability with time. Generally, cholecalciferol is known to be susceptible to moisture, light, and heat. […] The amount of trans-vitamin D3 (after storage in a photostability chamber under 1,200,000 LUX for 18.44 hours) was increased by about 1.2% with respect to initial level, while the amount of vitamin D3 was reduced by about 10%.", "data": [{"smiles": "C=C1CC[C@H](O)C/C1=C/C=C1\\CCC[C@]2(C)[C@@H]([C@H](C)CCCC(C)C)CC[C@@H]12", "note": "[cholecalciferol, Cholecalciferol]", "values": [{"measurement": "increase of the amount of trans-vitamin D3 with respect to initial level", "value": "about 1.2%"}, {"measurement": "reduction of the amount of vitamin D3", "value": "about 10%"}]}]}
